These results are taken from PMC10452110, “Indole-3-Acetamido-Polyamines as Antimicrobial Agents and Antibiotic Adjuvants” (Biomolecules, 2023).

The structures appear in SMILES notation.

Data set [1] relates to Staphylococcus aureus (ATCC 25923). The experiment in a line: Intrinsic antimicrobial activity (MIC) against S. aureus. The data set is classed as cell-based. The conditions noted are these: ATCC25923, S. aureus ATCC 25923, mean (n = 3), read-out: MIC S. a. In short, it runs like this:
(§1)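 Antibacterial MICs by established in-house protocol; yeast MICs run externally at CO-ADD, University of Queensland, per their standard screening protocols.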

Another data set has as its system MRSA (ATCC 43300). The experiment in a line: Intrinsic antimicrobial activity (MIC) against MRSA. The data set is classed as cell-based. To be noted: Staphylococcus aureus, MRSA ATCC 43300; mean (n = 2); read-out: MIC MRSA. A digest of the protocol: (§2)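 Bacterial susceptibility was determined following previously reported protocols. The antifungal evaluations were carried out at the Community for Open Antimicrobial Drug Discovery (University of Queensland, Australia) under its standard protocols.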

Data set [2] deals with Pseudomonas aeruginosa (ATCC 27853). Nature of the data set: Intrinsic antimicrobial activity (MIC) against P. aeruginosa. The data set is classed as cell-based. The conditions noted are these: ATCC27853, P. aeruginosa ATCC 27853, mean (n = 3), read-out: MIC P. a. In short, it runs like this: as §1
In data set [3] the test system is Escherichia coli (ATCC 25922). Nature of the data set: Intrinsic antimicrobial activity (MIC) against E. coli. The data set is classed as cell-based. To be noted: ATCC25922, E. coli ATCC 25922, mean (n = 3), read-out: MIC E. c. In short, it runs like this: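 Susceptibility testing: bacteria per earlier published methods; fungi per CO-ADD standard protocols (University of Queensland).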

Data set [4] concerns Klebsiella pneumoniae (ATCC 700603). The experiment in a line: Intrinsic antimicrobial activity (MIC) against K. pneumoniae. The conditions noted are these: ATCC700603, K. pneumoniae ATCC 700603, mean (n = 2), read-out: MIC K. p. Type of data set: cell-based. Here is the method: (§3) The susceptibility of bacterial strains Staphylococcus aureus (ATCC 25923), Escherichia coli (ATCC 25922) and Pseudomonas aeruginosa (ATCC 27853) to antibiotics and compounds was determined using previously reported protocols. Additional antimicrobial evaluation against MRSA (ATCC 43300), Klebsiella pneumoniae (ATCC 700603), Acinetobacter baumannii (ATCC 19606), Candida albicans (ATCC 90028) and Cryptococcus neoformans (ATCC 208821) was undertaken at the Community for Open Antimicrobial Drug Discovery at The University of Queensland (Australia) according to their standard protocols, as reported previously.

Data set [5] concerns Acinetobacter baumannii (ATCC 19606). Nature of the data set: Intrinsic antimicrobial activity (MIC) against A. baumannii. Type of data set: cell-based. To be noted: ATCC19606, A. baumannii ATCC 19606, mean (n = 2), read-out: MIC A. b. Here is the method: as §3
Data set [6] deals with Candida albicans (ATCC 90028). The experiment in a line: Intrinsic antifungal activity (MIC) against C. albicans. To be noted: ATCC90028, C. albicans ATCC 90028, mean (n = 2), read-out: MIC C. a. Type of data set: cell-based. A digest of the protocol: as §2
Data set [7] relates to Cryptococcus neoformans (ATCC 208821). The experiment in a line: Intrinsic antifungal activity (MIC) against C. neoformans. The conditions noted are these: ATCC208821, C. neoformans ATCC 208821, mean (n = 2), read-out: MIC C. n. The data set is classed as cell-based. In short, it runs like this:
as §2

A further data set can be described thus: Cytotoxicity assay. The data set is classed as cell-based. To be noted: human; HEK293 cells; mean (n = 2); read-out: Cytotoxicity: concentration of compound at 50% cytotoxicity (IC50). Here is the method: Cytotoxicity assays were conducted using the protocols previously reported.
The next data set concerns human red blood cells. Nature of the data set: Hemolytic assay. The data set is classed as cell-based. To be noted: mean (n = 2). Here is the method: Hemolysis assays were conducted using the protocols previously reported.
For a further data set, the system named is P. aeruginosa ATCC 27853. The experiment in a line: Enhancement of doxycycline action against P. aeruginosa. To be noted: doxycycline at 4.5 µM. Type of data set: cell-based, Pseudomonas aeruginosa. Here is the method: (§4) Antibiotic enhancer concentrations were determined using previously reported protocols.
The subject of a further data set is E. coli ATCC 25922. Nature of the data set: Enhancement of erythromycin action against E. coli. Type of data set: cell-based, Escherichia coli. To be noted: erythromycin at 10.9 µM. Here is the method: as §4

As to `O=C(Cc1c[nH]c2ccc(Br)cc12)NCCCNCCCCCCCCCCCCNCCCNC(=O)Cc1c[nH]c2ccc(Br)cc12.O=C(O)C(F)(F)F.O=C(O)C(F)(F)F` [Compound 15f, N^1,N^12-Bis(3-(2-(5-bromo-1H-indol-3-yl)acetamido)propyl)dodecane-1,12-diaminium 2,2,2-trifluoroacetate], the MIC (in general, the least concentration at which growth counts as inhibited) is 6.16 µM in data set [1]; at most 0.25 µM in the data set with MRSA (ATCC 43300); 197 µM in [2]; 12.3 µM in data set [3]; over 32 µM in data set [4]; 7.88 µM in data set [5]. Further, the MIC in data set [6] and in data set [7] was at most 0.25 µM each time. Further, in the data set “Cytotoxicity assay”, the IC50 is 4.75 µM. The “Hemolysis: concentration of compound at 10% hemolytic activity (HC10)” value (“Hemolysis … at 10% hemolytic activity (HC10)” for short) in the data set with human red blood cells is at most 0.25 µM. Further, in the data set with P. aeruginosa ATCC 27853, the “Dox/P. a fold change (ratio between intrinsic MIC of the test compound and combination MIC)” value is reported as 2 fold. The “Dox/P. a: concentration required to restore doxycycline activity (combination MIC)” value (shortened to “Dox/P. a: concentration required”) in the data set with P. aeruginosa ATCC 27853 was determined as 98.5 µM. For the same molecule, in the data set with E. coli ATCC 25922, the “Eryth/E. c: concentration required to restore erythromycin activity (combination MIC)” value (from here on “Eryth/E. c: concentration required”) turned out to be 24.6 µM.

Turning to `COc1ccc2[nH]cc(CC(=O)NCCCNCCCCCCNCCCNC(=O)Cc3c[nH]c4ccc(OC)cc34)c2c1.O=C(O)C(F)(F)F.O=C(O)C(F)(F)F` [Compound 16b, N^1,N^6-Bis(3-(2-(5-methoxy-1H-indol-3-yl)acetamido)propyl)hexane-1,6-diaminium 2,2,2-trifluoroacetate], the MIC was 50 µM in data set [1]; 38 µM in the data set with MRSA (ATCC 43300); over 200 µM in data set [2]; 100 µM in [3]; over 38 µM in data set [4]; over 38 µM in data set [5]. Further, the minimum inhibitory concentration (MIC) in data set [6] is over 38 µM; in [7] it was at most 0.3 µM. Besides, the IC50 in the data set “Cytotoxicity assay” is over 38 µM. For the same molecule, the “Hemolysis … at 10% hemolytic activity (HC10)” value in the data set on human red blood cells is listed as over 38 µM. In addition, the “Dox/P. a fold change (ratio between intrinsic MIC of the test compound and combination MIC)” value in the data set with P. aeruginosa ATCC 27853 is listed as over 8 fold. Moreover, the “Dox/P. a: concentration required” value in the data set with P. aeruginosa ATCC 27853 is reported as 25 µM. The “Eryth/E. c: concentration required” value in the data set on E. coli ATCC 25922 was found to be 50 µM.

Regarding `COc1ccc2[nH]cc(CC(=O)NCCCNCCCCCCCNCCCNC(=O)Cc3c[nH]c4ccc(OC)cc34)c2c1.O=C(O)C(F)(F)F.O=C(O)C(F)(F)F` [Compound 16c, N^1,N^7-Bis(3-(2-(5-methoxy-1H-indol-3-yl)acetamido)propyl)heptane-1,7-diaminium 2,2,2-trifluoroacetate], the MIC was over 200 µM in [1]; over 38 µM in the data set with MRSA (ATCC 43300); over 200 µM in data set [2]; 25 µM in data set [3]; over 38 µM in data set [4]; over 38 µM in data set [5]. In addition, the MIC in data set [6] was over 38 µM; in data set [7], 2.36 µM. Besides, the IC50 in “Cytotoxicity assay” is over 38 µM. The “Hemolysis … at 10% hemolytic activity (HC10)” value in the data set on human red blood cells was over 38 µM. The “Dox/P. a: concentration required” value in the data set on P. aeruginosa ATCC 27853 was determined as 12.5 µM. The “Eryth/E. c: concentration required” value in the data set on E. coli ATCC 25922 was found to be 50 µM.

For the molecule `COc1ccc2[nH]cc(CC(=O)NCCCNCCCCCCCCNCCCNC(=O)Cc3c[nH]c4ccc(OC)cc34)c2c1.O=C(O)C(F)(F)F.O=C(O)C(F)(F)F` [Compound 16d, N^1,N^8-Bis(3-(2-(5-methoxy-1H-indol-3-yl)acetamido)propyl)octane-1,8-diaminium 2,2,2-trifluoroacetate], the MIC in data set [1] was 25 µM; with MRSA (ATCC 43300) it was 2.32 µM; in data set [2], 100 µM; in [3] it was 6.25 µM; in data set [4], over 37 µM; in data set [5] it was over 37 µM. Also, the MIC was over 37 µM in data set [6] and at most 0.29 µM in [7]. In “Cytotoxicity assay”, the IC50 was over 37 µM. The “Hemolysis … at 10% hemolytic activity (HC10)” value with human red blood cells is given as over 37 µM. Further, the “Dox/P. a: concentration required” value in the data set with P. aeruginosa ATCC 27853 was 6.25 µM. The “Eryth/E. c: concentration required” value in the data set with E. coli ATCC 25922 amounted to 6.25 µM.

In the case of `COc1ccc2[nH]cc(CC(=O)NCCCNCCCCCCCCCCNCCCNC(=O)Cc3c[nH]c4ccc(OC)cc34)c2c1.O=C(O)C(F)(F)F.O=C(O)C(F)(F)F` [Compound 16e, N^1,N^10-Bis(3-(2-(5-methoxy-1H-indol-3-yl)acetamido)propyl)decane-1,10-diaminium 2,2,2-trifluoroacetate], the MIC in data set [1] is 7.03 µM; with MRSA (ATCC 43300), at most 0.28 µM; in data set [2], 112 µM; in data set [3] it was 14.1 µM; in [4] it was over 36 µM; in data set [5] it was over 36 µM. The MIC in [6] was 2.25 µM; in data set [7], at most 0.28 µM. The IC50 in “Cytotoxicity assay” was over 36 µM. Further, the “Hemolysis … at 10% hemolytic activity (HC10)” value in the data set with human red blood cells is over 36 µM. Moreover, in the data set on P. aeruginosa ATCC 27853, the “Dox/P. a fold change (ratio between intrinsic MIC of the test compound and combination MIC)” value came out at 8 fold. In the data set with P. aeruginosa ATCC 27853, the “Dox/P. a: concentration required” value was determined as 14.1 µM. Also, the “Eryth/E. c: concentration required” value in the data set on E. coli ATCC 25922 amounted to 28.1 µM.

`COc1ccc2[nH]cc(CC(=O)NCCCNCCCCCCCCCCCCNCCCNC(=O)Cc3c[nH]c4ccc(OC)cc34)c2c1.O=C(O)C(F)(F)F.O=C(O)C(F)(F)F` [Compound 16f, N^1,N^12-Bis(3-(2-(5-methoxy-1H-indol-3-yl)acetamido)propyl)dodecane-1,12-diaminium 2,2,2-trifluoroacetate]: the MIC was 6.82 µM in [1]; at most 0.27 µM in the data set on MRSA (ATCC 43300); 109 µM in data set [2]; 13.6 µM in data set [3]; over 35 µM in [4]; over 35 µM in data set [5]. Moreover, the MIC in [6] was 35 µM; in data set [7], at most 0.27 µM. Further, in the data set “Cytotoxicity assay”, the IC50 is over 35 µM. In addition, the “Hemolysis … at 10% hemolytic activity (HC10)” value in the data set on human red blood cells is listed as over 35 µM. The “Dox/P. a fold change (ratio between intrinsic MIC of the test compound and combination MIC)” value in the data set with P. aeruginosa ATCC 27853 was 8 fold. In the data set on P. aeruginosa ATCC 27853, the “Dox/P. a: concentration required” value was 13.6 µM. Besides, in the data set with E. coli ATCC 25922, the “Eryth/E. c: concentration required” value came out at 27.3 µM.

On to `Cc1ccc2[nH]cc(CC(=O)NCCCNCCCCNCCCNC(=O)Cc3c[nH]c4ccc(C)cc34)c2c1.O=C(O)C(F)(F)F.O=C(O)C(F)(F)F` [Compound 17a, N^1,N^4-Bis(3-(2-(5-methyl-1H-indol-3-yl)acetamido)propyl)butane-1,4-diaminium 2,2,2-trifluoroacetate], for which the MIC in [1] was 129 µM; with MRSA (ATCC 43300) it was at most 0.32 µM; in data set [2], over 259 µM; in [3], over 259 µM; in data set [4], over 41 µM; in [5], over 41 µM. The MIC in [6] is 20.7 µM; in data set [7], at most 0.32 µM. Further, the IC50 in the data set “Cytotoxicity assay” was over 41 µM. Further, in the data set on human red blood cells, the “Hemolysis … at 10% hemolytic activity (HC10)” value came out at 8.46 µM. Further, the “Dox/P. a fold change (ratio between intrinsic MIC of the test compound and combination MIC)” value in the data set with P. aeruginosa ATCC 27853 is recorded as over 2 fold. In addition, the “Dox/P. a: concentration required” value with P. aeruginosa ATCC 27853 is recorded as 129 µM. Moreover, the “Eryth/E. c: concentration required” value in the data set on E. coli ATCC 25922 was found to be 64.7 µM.
